Values belong to the molecule of their own block, whether it stands above or below them.
Experiments:
PP2A [1] = conditions: cited from earlier work
Description: (§1) Therefore, blocking PP2Ac Tyr127 nitration is considered a potential therapeutic approach. […] Peptide-based drugs have garnered much attention because of their high potencies of action and relatively few off-target side-effects[52][53].

Caco-2 Cells = conditions: cited from earlier work
Description: as §1

PP2A [2] = conditions: inhibition of PP2A by okadaic acid; cited from earlier work
Description: The vast majority of biological processes, including renal fibrosis, are regulated by the balance between the activities of kinases and phosphatases. The significance of kinases has been intensively discussed in kidney disease for decades, however, the roles of phosphatases remain poorly understood. Protein phosphatase 2A (PP2A) is a ubiquitously expressed protein serine/threonine phosphatase that accounts for a large fraction of phosphatase activity in eukaryotic cells. As a heterotrimer, PP2A is composed of three subunits: a catalytic C subunit (PP2Ac), a structural A subunit (PP2Aa) ...

HUVECs [3] = experiment: TGF-β1-induced EndMT in HUVECs, western blot of VE-cadherin and α-SMA; format: cell-based, human; conditions: n ≥ 3
Experimental: (§2) Human umbilical vein endothelial cells (HUVECs, ATCC) were cultured in RPMI-1640 (Gibco) supplemented with 10% fetal bovine serum (FBS, HyClone). When 30% confluent, cells were cultured in serum-free medium before recombinant human TGF-β1 (10 ng/ml; Peprotech) treatment. In some experiments, cells were pretreated with PP2A inhibitor OA (10 nM; Sigma) for 1 h before the addition of TGF-β1. For all cell stimulations, n ≥ 3 independent experiments were performed.
Renal tissues or cells were harvested and centrifuged at 12,000 g to remove cell debris. Protein concentration was measured using a BCA assay kit (Pierce). Eighty micrograms of protein was subjected to SDS-PAGE and transferred onto polyvinylidene difluoride membranes. After transfer, the membranes were blocked and blotted routinely with antibodies against VE-cadherin (BD Biosciences), α-SMA (Abcam), collagen1 (Abcam), PP2Ac (Cell Signaling Technology), occludin (Invitrogen), P-threonine/P-serine (Santa Cruz), nitrotyrosine (Cayman), acetylated-lysine (Cell Signaling Technology), phosphotyrosine (PY-20,Biolgend), PP2A,C subunit, demethylated (Millipore), vimentin (Boster) and CD31 (Proteintech). The immunolabeled proteins were detected by enhanced chemiluminescence (Pierce).The density of the bands was analyzed by Quantity One software (Bio-Rad).

occludin = experiment: Serine/threonine phosphorylation of occludin in immunoprecipitates from TGF-β1-treated HUVECs; format: cell-based, human; conditions: n ≥ 3
Experimental: as §2
Cell lysates were centrifuged at 12,000g for 30 min at 4 °C. Approximately 1 mg of each lysate was incubated overnight at 4 °C with 2 μg of anti-occludin, anti-PP2Ac or IgG antibody (a negative control), followed by incubation with Protein A/G-Agarose for 1 hr to capture immunoprecipitates. Bead complexes were washed four times in lysis buffer and then resuspended in 2 × SDS buffer and heated for 10 min at 90 °C. Lysates were electrophoresed, transferred to PVDF filters, and subsequently immunoblotted with antibodies.

HUVECs [4] = experiment: Cytotoxicity to HUVECs, CCK-8 assay; format: cell-based, human; conditions: approximately 5–10 μM (0, 1, 5, 10, 20 or 50 μM tested), n=3
Experimental: (§3) Figure S2. The penetration and cytotoxicity of TAT-Y127WT to HUVECs.
(§4) HUVECs were incubated with various concentrations (0,1,5,10,20,or 50μM) of TAT-Y127WT. Cytotoxicity was measured with the CCK-8 assay. (c)
(§5) Immunofluorescence distribution of TAT-Y127WT and cell morphology. Nuclei were counterstained with DAPI (blue). n=3. Scale bars, 20μm.
(§6) Supplementary Methods: Mass Spectrometry Experiments
(§7) Protein Digestion-The protein bands were digested according to an in-gel digestion procedure. The gels were dried in a vacuum centrifuge. Briefly, the in-gel proteins were reduced with dithiothreitol (10 mM DTT/100 mM NH4HCO3 ) for 30 min at 56°C, then alkylated with iodoacetamide (200 mM IAA/100 mM NH4HCO3) in the dark at room temperature for 30 minutes. Gel pieces were briefly rinsed with 100 mM NH4HCO3 and ACN. Gel pieces were digested overnight in 12.5 ng/μl trypsin in 25 mM NH4HCO3. The peptides were extracted three times with 60% ACN/0.1% TFA.
The extracts were pooled and dried completely by a vacuum centrifuge.
Identification of the Modification Sites-Experiments were performed on a Q Exactive mass spectrometer that was coupled to Easy nLC (Proxeon Biosystems, now Thermo Fisher Scientific). Approximately 3 μl of the sample was injected for nanoLC-MS/MS analysis. The peptide mixture (1 μg) was loaded onto the C18-reversed phase column
(1 picture or pasted object on this page, not shown here)

[5] = Whole-body and ex vivo organ fluorescence imaging of FITC-labeled peptide in mice; design: species or system C57/B mice
Experimental: FITC-loaded peptides were injected through the tail vein or intraperitoneally administered into C57/B mice at a dose of 5 nmol/g of body weight. Whole body fluorescence imaging was performed using an in vivo imaging system (IVIS Spectrum, Caliper, USA) at 0, 0.5, 4 or 24 h post-injection. Subsequently, the mice were sacrificed, and their organs such as the liver, spleen, kidneys, heart, and lung were excised and subjected to ex vivo fluorescence imaging. At the same time, 1 mL of blood was drawn from the retro-orbital sinus after injection at different time points.

HUVECs [6] = experiment: Cellular uptake of FITC-labeled peptide in HUVECs; format: cell-based, human; conditions: fluorescence, n=3
Experimental: To further confirm the hypothesis, PP2Ac mimic peptides (Y127WT,Y130WT,Y265WT, Y267WT,Y284WT) were designed to assess the significance of Tyr127 and other Tyr sites on TGF-β1-driven EndMT. To enhance the penetration of synthetic peptides, a cell-permeable peptide transactivator of transcription (TAT) was used[20][21]. The conjugated peptide TAT-Y127WT was labeled with fluorescein isothiocyanate (FITC) and analyzed for cellular uptake. […] Thus, at the dose of 10 μM, we investigated the anti-EndMT effects of TAT-Y127WT compared with the other four peptides.
as §3, §4, §5, §6
as §7, with “Gel pieces were digested overnight in 12.5 ng/μl trypsin in 25 mM NH4HCO3. The peptides were extracted three times with 60% ACN/0.1% TFA.” left out

[7] = OA 10 nM for 1 h before TGF-β1 10 ng/ml
[8] = FITC-labeled peptide, tail vein injection, ex vivo organ imaging at different time points

Experimental for UUO mice: Mice aged 6–8 weeks were grouped as sham-operated, UUO, UUO +TAT-Y127WT and UUO + TAT-Y127Scr and tail vein injected 1d before surgery. To perform UUO surgery, mice were anesthetized with ketamine hydrochloride (80 mg/kg body weight, intraperitoneally) before surgery and the left kidney was exposed through a flank incision and the left ureter tied off at the level of the lower pole of the kidney with two 4.0 silk ties. All mice were euthanized at the end of the experiments after obstruction, and some kidney tissues were fixed with 4% paraformaldehyde. The remainder was frozen in liquid nitrogen for later use.
Four-micrometer-thick paraffin sections were incubated with primary antibodies overnight at 4 °C and were then incubated with biotinylated goat anti-rabbit IgG or goat anti-mouse IgG for 45 min followed by diaminobenzidine (DAKO) staining. All sections were examined under a light microscope (Olympus BX-50) and digitized with a high-resolution camera. For immunofluorescence studies, after incubated with primary antibody, sections (including serial sections) were incubated with FITC- or CY3-conjugated goat antibody (Jackson ImmunoResearch) for 45 min at 37 °C and then counterstained with DAPI (Vector Laboratories) and analyzed by confocal laser scanning microscopy. 3D reconstructed technology was based on confocal laser-scanning microscopy and analyzed by the software (LAS-AF-Lite 2.6.3). PTC density was analyzed as described with some modifications[56].

Molecule: TPDYFL
PP2A translocation in cardiac myocytes (PP2A [1]): attenuate
acetaldehyde-induced tight junction disruption and barrier dysfunction (Caco-2 Cells): prevented

Molecule: C=C1[C@@H](O)[C@@H]2O[C@]3(CC[C@H](/C=C/[C@@H](C)[C@@H]4CC(C)=C[C@@]5(O[C@H](C[C@@](C)(O)C(=O)O)CC[C@H]5O)O4)O3)CC[C@H]2O[C@@H]1[C@@H](O)C[C@H](C)[C@H]1O[C@@]2(CCCCO2)CC[C@H]1C [OA, okadaic acid, reference compound]
effect of PP2A on thrombin- or nocodazole-induced changes in EC cytoskeleton (PP2A [2]): abolished
VE-cadherin expression (HUVECs [3]; [7]): maintained
α-SMA expression induced by TGF-β1 (HUVECs [3]; [7]): markedly attenuated
TGF-β1-induced decrease of phosphorylated serine and threonine residues in occludin immunoprecipitates (occludin; pretreatment with OA 10 nM for 1 h): significantly dampened

time to disappearance of the fluorescence signal after injection ([5]; FITC-labeled peptide 5 nmol/g intravenously, whole-body imaging at 0, 0.5, 4, 24 h and blood samples (n = 6)): ≤ 24 h
fluorescence in heart and lung [5, 8]: small signal
fluorescence in kidney and liver [5, 8]: strongly detected
fluorescence in spleen [5, 8]: no signal
cell transduction (HUVECs [6]; 10 μM): effectively transduces cells
cell penetration (HUVECs [6]; FITC-labeled peptide, approximately 5–10 μM): efficient cell penetration
Molecule: ITQVYGFYD [TAT-Y127WT, mimic peptide derived from PP2Ac conjugating a cell penetrating peptide (CPP: TAT)]
cytotoxicity to HUVECs (HUVECs [4]): low cytotoxicity
density of peritubular capillaries (UUO mice; 5 nmol/g per day, CD31+ PTC numbers per visual field, n = 8): preserved density
number of CD31+/α-SMA+ areas in the interstitium (EndMT level) (UUO mice; 5 nmol/g per day, confocal microscopy, n = 8): dramatically decreased
excessive extracellular matrix (ECM) production, α-SMA and vimentin deposition (UUO mice; 5 nmol/g per day, immunohistochemical staining, n = 8): attenuated
PP2Ac nitration (UUO mice; administration of the peptide): significantly reduces
potency to inhibit TGF-β1-induced VE-cadherin decrease and α-SMA increase (HUVECs [3]; peptide 10 μM, TGF-β1, 72 h, compared with the other four peptides): higher potency
increase of α-SMA (HUVECs [3]; pretreatment with peptide, TGF-β1, 72 h): inhibited
serine and threonine phosphorylation of occludin (occludin; TGF-β1, 72 h, compared with TAT-Y127Scr treatment): significantly increased

Reference: PMC4726189, “Blocking protein phosphatase 2A signaling prevents endothelial-to-mesenchymal transition and renal fibrosis: a peptide-based drug therapy” (Scientific Reports, 2016)
